Among the data in ChEMBL document CHEMBL1938361, “Elaborate ligand-based modeling and subsequent synthetic exploration unveil new nanomolar Ca2+/calmodulin-dependent protein kinase II inhibitory leads” (Bioorg Med Chem, 2012) are IC50 values, retold here.

The target in this assay is Calcium/calmodulin-dependent protein kinase type II subunit delta (Homo sapiens, UniProt Q13557). The assay can be described thus: Inhibition of human recombinant CAMK2delta using tetramethylbenzidine as substrate by spectrophotometry analysis.
Calcium/calmodulin-dependent protein kinase type II subunit delta, sequence (Q13557 whole entry): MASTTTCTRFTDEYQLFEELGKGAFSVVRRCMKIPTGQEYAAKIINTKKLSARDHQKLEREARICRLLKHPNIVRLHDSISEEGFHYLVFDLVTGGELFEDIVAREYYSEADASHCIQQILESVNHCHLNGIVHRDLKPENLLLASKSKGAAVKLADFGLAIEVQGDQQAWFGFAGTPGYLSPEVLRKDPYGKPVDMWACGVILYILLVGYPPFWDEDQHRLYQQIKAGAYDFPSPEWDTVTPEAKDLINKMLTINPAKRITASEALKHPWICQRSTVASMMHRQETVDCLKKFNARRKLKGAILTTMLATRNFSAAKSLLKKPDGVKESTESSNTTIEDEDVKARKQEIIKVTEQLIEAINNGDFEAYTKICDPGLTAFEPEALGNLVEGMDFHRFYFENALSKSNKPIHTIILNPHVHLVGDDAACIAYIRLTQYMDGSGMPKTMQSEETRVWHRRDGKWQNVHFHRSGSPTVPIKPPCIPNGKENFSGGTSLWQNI

Turning to `CN([C@@H](Cc1ccc(OS(=O)(=O)c2cccc3cnccc23)cc1)C(=O)N1CCN(c2ccccc2)CC1)S(=O)(=O)c1cccc2cnccc12`, the IC50 was determined as 380 nM.
